Measurements published in the supplement of paper PMC13380429.
± gives the standard deviation of the averaged measurements.

How the values were obtained:
Settings in all cases: 72 h
HepG2 [1] = test: drug sensitivity score (DSS) for viability; higher = more toxic; extreme values may be limits of the assay
Caco-2 [2] = test: as above
U2OS [3] = test: as above
Vero E6 [4] = test: as above
Calu-3 [5] = test: as above
HepG2 [6] = test: cell viability relative to DMSO; higher = less toxic
Caco-2 [7] = test: as above
U2OS [8] = test: as above
Vero E6 [9] = test: as above
Calu-3 [10] = test: as above
HepG2 [11] = test: relative viability EC50 (midpoint between 100% and the lowest measured viability); higher = less toxic
Caco-2 [12] = test: as above
U2OS [13] = test: as above
Vero E6 [14] = test: as above
Calu-3 [15] = test: as above

Structure (SMILES) | drug sensitivity score (HepG2 [1]) | drug sensitivity score (Caco-2 [2]) | drug sensitivity score (U2OS [3]) | drug sensitivity score (Vero E6 [4]) | drug sensitivity score (Calu-3 [5]) | cell viability (HepG2 [6]; 1 nM) | cell viability (HepG2 [6]; 10 nM) | cell viability (HepG2 [6]; 100 nM) | cell viability (HepG2 [6]; 1000 nM) | cell viability (HepG2 [6]; 10000 nM) | cell viability (Caco-2 [7]; 1 nM) | cell viability (Caco-2 [7]; 10 nM) | cell viability (Caco-2 [7]; 100 nM) | cell viability (Caco-2 [7]; 1000 nM) | cell viability (Caco-2 [7]; 10000 nM) | cell viability (U2OS [8]; 1 nM) | cell viability (U2OS [8]; 10 nM) | cell viability (U2OS [8]; 100 nM) | cell viability (U2OS [8]; 1000 nM) | cell viability (U2OS [8]; 10000 nM) | cell viability (Vero E6 [9]; 1 nM) | cell viability (Vero E6 [9]; 10 nM) | cell viability (Vero E6 [9]; 100 nM) | cell viability (Vero E6 [9]; 1000 nM) | cell viability (Vero E6 [9]; 10000 nM) | cell viability (Calu-3 [10]; 1 nM) | cell viability (Calu-3 [10]; 10 nM) | cell viability (Calu-3 [10]; 100 nM) | cell viability (Calu-3 [10]; 1000 nM) | cell viability (Calu-3 [10]; 10000 nM) | relative viability EC50 (HepG2 [11]) | relative viability EC50 (Caco-2 [12]) | relative viability EC50 (U2OS [13]) | relative viability EC50 (Vero E6 [14]) | relative viability EC50 (Calu-3 [15])
CN1C(=O)N[C@H](Cc2c[nH]c3c(Cl)cccc23)C1=O [necrostatin-2] | 0 | 0 | 0 | 0 | 0 | 112% | 99.3% | 95.3% | 91.3% | 108% | 99% | 112% | 99.4% | 108% | 102% | 103% | 109% | 105% | 107% | 95.1% | 104% | 102% | 103% | 99.1% | 97.8% | 97.1% | 110% | 93.9% | 96.9% | 90.4% | > 10 µM | > 10 µM | > 10 µM | > 10 µM | > 10 µM
CC[C@H]1[C@@H](O)[C@@H]2[C@H](CC[C@]3(C)[C@@H]([C@H](C)CCC(=O)O)CC[C@@H]23)[C@@]2(C)CC[C@@H](O)C[C@@H]12 [obeticholic-acid] | 0 | 0.25 ± 0.35 | 0 | 0 | 0 | 100 ± 4.6% | 102 ± 17% | 95.5 ± 8.1% | 103 ± 3.2% | 104.8 ± 0.14% | 98.7 ± 5.8% | 104 ± 4.4% | 95 ± 8.5% | 94.8 ± 1.6% | 95.5 ± 1.6% | 102% | 104% | 96.1% | 104% | 99.2% | 109 ± 20% | 94.8 ± 3.3% | 99.8 ± 12% | 97.3 ± 0.57% | 103 ± 7.1% | 106 ± 6.7% | 100 ± 2.4% | 105.9 ± 0.57% | 97.5 ± 6.6% | 98.2 ± 7.2% | > 10 µM | > 10 µM | > 10 µM | > 10 µM | > 10 µM
C=CC(=O)Nc1cc(Nc2nccc(-c3cn(C)c4ccccc34)n2)c(OC)cc1N(C)CCN(C)C [osimertinib] | 8.1 | 8.8 | 8 | 10.4 | 15.8 | 99.6% | 98.8% | 104% | 82.4% | 6% | 82.7% | 97.2% | 94.2% | 72.6% | 9.1% | 95.7% | 99.2% | 92.3% | 83.6% | 5% | 95.9% | 93.8% | 90.4% | 57.7% | 0% | 92.6% | 92.9% | 72.2% | 36.7% | 0.7% | 1.8 µM | 1.44 µM | 1.86 µM | 1.19 µM | 0.374 µM
